Measurements reported in patent US12293809B2, “Workflow for generating compounds with biological activity against a specific biological target” (INSILICO MEDICINE IP LIMITED, priority 2019, dated 2025).
Entries after “also recorded” stand apart in the source; their conditions may differ.

Experiments:
in vitro = test: in vitro
Protocol: (§1) Cold acetonitrile (ACN) including 100 ng/mL Tolbutamide and 100 ng/mL Labetalol as internal standard (IS) were used for stop solution. 10 μL compound or control working solution/well was added to all plates (T0, T5, T10, T20, T30, T60, NCF60) except matrix blank. Dispense 80 μL/well microsome solution was added to every plate by Apricot, the mixture of microsome solution and compound were incubated at 37° C. for about 10 min. After pre-warming, dispense 10 μL/well NADPH regenerating system was added to every plate by Apricot to start reaction. The solution was then incubated at 37° C. 300 (μL/well) stop solution (cold in 4° C.) was added to terminate the reaction. The sampling plates were shaken for approximately 10 min. Samples were centrifuged at 4000 rpm for 20 min under 4° C. While centrifuging, 8×new 96-well plate were loaded with 300 μL HPLC water, then 100 μL supernatant was transferred and mixed for LC/MS/MS.

[1] = Microsomal stability (MLM)
Protocol: as §1

hDDR1 [2] = molecular target: T1, hDDR1 (Homo sapiens, UniProt Q08345); test: KinaseProfiler radiometric biochemical kinase assay (Eurofins); set-up: purchased Eurofins 14-942KP10; conditions: for IC50: read-out: IC50, inhibition of DDR1 activity
Protocol: The experimental procedures were performed by Eurofins. The activity of the molecules against hDDR1 and hDDR2 kinases was assessed using KinaseProfiler^67. […] The enzymatic reaction processed in the presence of Mg^2+ cations and ATP at room temperature for 40 minutes and terminated by addition of phosphoric acid. […] All the compounds were prepared in 100% DMSO. […] The biological evaluation of selectivity against non-target kinases was performed in Dundee Eurofins, using Scan Max Delta Panel [10 μM ATP] KinaseProfiler^68.

[3] = system: collagen α1 production in LX-2 cells; test: LX-2 fibrosis assay, TGF-β stimulated (Western blot); format: cell-based, human; conditions: 0.5 to 10 μM
Protocol: Collagen α1, α-SMA, CTGF and GAPDH were traced using Western blot analysis. DMSO and SB-525334 were used as negative and positive controls, respectively.
Human hepatic stellate cells LX-2 were grown in DMEM (Invitrogen, 11960) supplied with 1% MEM Non-Essential Amino Acids (Invitrogen, 11140-050), 2% fetal bovine serum (Hyclone, SV30087.03), Penicillin (100 U/mL)-streptomycin (100 μg/mL) (Millipore, TMS-AB2-C) and 2 mM L-Glutamine (Invitrogen, 25030-001). After the cells grew in 12-well plates for 24 h, the cell culture medium was changed to the same as above except using 0.4% fetal bovine serum. After 20 h growth in the reduced serum medium, the cells were treated with indicated doses of compounds for 30 minutes. Subsequently, the cells were stimulated with 4 ng/mL TGF-β (R&D Systems, 240-B-002) for 48 h. The cells were rinsed twice with DPBS before being harvested with 100 μL RIPA buffer (Sigma, R0278) supplemented with protease inhibitor cocktail (Roche, 04693132001) at 4° C. The total protein in each sample was quantified using BCA Protein Assay Kit (Pierce™, 23227) and equal amount of total protein of each sample was subject to Western blot analysis. Antibodies used were mouse anti-α-Actin (SPM332) (sc-365970), mouse anti-CTGF (E5) (sc-365970), and mouse anti-collagen al (3G3) (sc-293182), from Santa Cruz Biotechnologies; and mouse anti-GAPDH (6C5) (EMD Millipore, MAB374).

[4] = system: CTGF expression in MRC-5 cells; test: MRC-5 fibrosis assay, TGF-β stimulated (Western blot); format: cell-based
Protocol: (§2) After 20 h growth in the reduced serum medium, the cells were treated with indicated doses of compounds for 30 minutes. Subsequently, the cells were stimulated with 10 ng/mL TGF-β (R&D Systems, 240-B-002) for 48 or 72 hours.

[5] = system: α-actin expression in MRC-5 cells; test: as above; format: cell-based
Protocol: as §2

[6] = system: α-actin (α-SMA) production in LX-2 cells; test: LX-2 fibrosis assay, TGF-β stimulated (Western blot); format: cell-based, human; conditions: 0.5 to 10 μM
Protocol: Collagen α1, α-SMA, CTGF and GAPDH were traced using Western blot analysis.
After 20 h growth in the reduced serum medium, the cells were treated with indicated doses of compounds for 30 minutes.

hDDR1 [7] = molecular target: T1, hDDR1; test: Rescreen in another biochemical assay (Thermo Fisher-PR6913A); conditions: read-out: IC50 towards DDR1 kinase, rescreen
Protocol: In the present example, six molecules were generated, selected, and synthesized and were submitted for biological testing (e.g., within 35 days). […] Since the dose-response curves for Compounds 2 and 4 seemed likely inconsistent, additional experiments were performed to confirm the activity of these molecules towards DDR1 kinase (see FIG. 4B). […] Compounds 1 and 2 were also evaluated towards DDR2 kinase.
FIGS. 4A-4B show the structures and dose-response curves for the generated molecules. The six generated compounds were tested in a dose-dependent manner against DDR1 tyrosine kinase.

T1 sequence (Q08345 19-913): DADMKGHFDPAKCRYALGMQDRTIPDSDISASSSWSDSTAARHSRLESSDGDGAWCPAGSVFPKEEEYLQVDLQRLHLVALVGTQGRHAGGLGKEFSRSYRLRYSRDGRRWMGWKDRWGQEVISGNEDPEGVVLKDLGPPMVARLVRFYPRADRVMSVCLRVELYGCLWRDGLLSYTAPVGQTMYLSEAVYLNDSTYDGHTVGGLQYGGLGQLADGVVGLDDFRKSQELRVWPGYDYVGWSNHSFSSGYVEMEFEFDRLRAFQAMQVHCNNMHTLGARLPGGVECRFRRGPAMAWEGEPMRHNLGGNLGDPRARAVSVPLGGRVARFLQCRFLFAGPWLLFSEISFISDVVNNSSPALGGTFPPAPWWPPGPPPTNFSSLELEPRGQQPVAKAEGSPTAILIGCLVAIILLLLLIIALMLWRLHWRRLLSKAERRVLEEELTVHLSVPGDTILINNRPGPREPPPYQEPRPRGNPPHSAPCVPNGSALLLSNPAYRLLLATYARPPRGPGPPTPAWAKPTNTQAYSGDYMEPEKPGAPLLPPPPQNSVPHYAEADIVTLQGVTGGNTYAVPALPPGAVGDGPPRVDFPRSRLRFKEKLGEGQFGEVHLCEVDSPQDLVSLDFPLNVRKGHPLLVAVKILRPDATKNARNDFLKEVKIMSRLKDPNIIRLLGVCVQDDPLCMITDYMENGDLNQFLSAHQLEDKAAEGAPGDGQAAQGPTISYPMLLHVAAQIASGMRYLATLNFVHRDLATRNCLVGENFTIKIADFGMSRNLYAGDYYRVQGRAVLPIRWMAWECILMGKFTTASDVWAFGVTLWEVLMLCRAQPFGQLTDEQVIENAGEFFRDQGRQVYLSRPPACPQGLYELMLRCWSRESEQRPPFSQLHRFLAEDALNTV

In the case of `O=C(O)Cc1ccccc1Nc1c(Cl)cccc1Cl` [Diclofenac, diclofenac], the CLint scaled (in vitro; Beagle, dog, microsomes) is reported as under 13.8 mL/min/kg, the “Remaining (*NCF = 60 min)” value (in vitro; Beagle, dog, microsomes, 1 h) is reported as 96.9% and the “Remaining (T = 60 min)” value (in vitro; Beagle, dog, microsomes, 1 h) is reported as 85.7%. For the same molecule, the CLint scaled (in vitro; SD, rat, microsomes) was 106 mL/min/kg, the “Remaining (*NCF = 60 min)” value (in vitro; SD, rat, microsomes, 1 h) was 89.8% and the “Remaining (T = 60 min)” value (in vitro; SD, rat, microsomes, 1 h) was 17.5%. For the same molecule, the CLint scaled (in vitro; human, microsomes) was 117 mL/min/kg, the “Remaining (*NCF = 60 min)” value (in vitro; human, microsomes, 1 h) was 87.9% and the “Remaining (*NCF = 60 min)” value ([1]; CD-1, mouse, microsomes, 1 h) was 91.8%. The “Remaining (T = 60 min)” value ([1]; CD-1, mouse, microsomes, 1 h) was 50.2%.

For `O=C(CN1CCNC2(CCN(C(=O)c3ccc4[nH]ncc4c3)CC2)C1=O)Nc1cccc(F)c1` [Compound 5], the “activity against DDR1 kinase (in words)” value (hDDR1 [2]) was “inactive”.

In the case of `Cc1cccc(-c2[nH]c(C(C)(C)C)nc2-c2ccc3nccnc3c2)n1` [SB-525334, reference compound], the “effect on collagen α1 expression” value [3] is reported as “strongly inhibited”, the “effect on CTGF expression” value ([4]; 0.5 μM) is reported as “no effect” and the “reduction of CTGF expression” value ([4]; 10 μM) is reported as 1.5 fold. The “reduction in α-actin expression level” value ([5]; 0.5 μM, compared to TGF+DMSO stimulation) was 2 fold, the “concentration of maximum inhibition of α-actin expression” value ([5]; MRC-5) was 10 µM and the “dose dependence of effect on α-actin expression” value ([5]; MRC-5) was “Unclear dose-dependent effect”. For the same molecule, the “effect on α-actin expression” value [6] was “strongly inhibited”.

`Cc1ccc(CNC(=O)Cc2cccc(F)c2)cc1-c1ccc2[nH]ncc2c1` [Compound 3] gave an IC50 (hDDR1 [2]) of 1000 nM.

With `Cc1nc(Nc2ncc(C(=O)Nc3c(C)cccc3Cl)s2)cc(N2CCN(CCO)CC2)n1` [Dasatinib, dasatinib] the “concentration of maximum inhibition of α-actin expression” value ([5]; MRC-5) was 10 µM.

For `Cc1ccc(NC(=O)CN2CCC2C(F)(F)F)cc1NC(=O)c1cnn2c1CCC2` (stereo not shown) [Compound 6], the “activity against DDR1 kinase (in words)” value (hDDR1 [2]) was “inactive; also recorded: did not demonstrate any activity”.

Work on `Cc1cc2[nH]c(-c3cc(CN(C)C)cc(C(F)(F)F)c3)nc2cc1C#Cc1cncnc1` [Compound 4] yielded an IC50 (hDDR1 [2]) of 278 nM and an IC50 (hDDR1 [7]) of 156 nM.

In the case of `C[C@]12CC[C@H]3[C@@H](CCC4=CC(=O)CC[C@@]43C)[C@@H]1CC[C@@H]2O` [Testosterone, testosterone], the CLint scaled (in vitro; Beagle, dog, microsomes) is reported as 114 mL/min/kg, the “Remaining (*NCF = 60 min)” value (in vitro; DLM 0.5, no co-factor) is reported as 88.6% and the “Remaining (T = 60 min)” value (in vitro; DLM 0.5, with NADPH) is reported as 9.5%. The “Remaining (*NCF = 60 min)” value (in vitro; HLM 0.5, no co-factor) was 82.4%, the “Remaining (T = 60 min)” value (in vitro; HLM 0.5, with NADPH) was 6.9% and the “Remaining (T = 60 min)” value (in vitro; HLM 0.5, with NADPH, listed as testosterone) was 6.9%. The “Remaining (*NCF = 60 min)” value (in vitro; RLM 0.5, no co-factor) was 86.8%, the “Remaining (T = 60 min)” value (in vitro; RLM 0.5, with NADPH) was 0.0% and the CLint scaled (in vitro; SD, rat, microsomes) was 2360 mL/min/kg. For the same molecule, the CLint scaled (in vitro; human, microsomes) was 79.7 mL/min/kg, the CLint scaled ([1]; CD-1, mouse, microsomes) was 1620 mL/min/kg and the half-life ([1]; CD-1, mouse, microsomes) was 3.4 min. For the same molecule, the “Remaining (*NCF = 60 min)” value ([1]; MLM 0.5, no co-factor) was 75.4% and the “Remaining (T = 60 min)” value ([1]; MLM 0.5, with NADPH) was 0.0%.
